Test results reported in article PMC8837603, “Lapcin, a potent dual topoisomerase I/II inhibitor discovered by soil metagenome guided total chemical synthesis” (Nature Communications, 2022).

Key:
HCT116 cells = test: cells; format: cell-based, human; conditions: Homo sapiens, HCT-116; colon cancer; MTT, 48 h, 37 °C; DMEM + 10% FBS; 10,000 cells/well; absorbance 570 nm; n = 3 biologically independent
Protocol: (§1) An MTT (2-(4,5-dimethylthiazol-2-yl)−2,5-diphenyltetrazolium bromide) assay was used to determine the cytotoxicity of lapcin towards diverse cancer cell lines. Lapcin was dissolved in DMSO to make a 3.2 mg/mL working solution. For each cancer line detailed in Supplementary Table 5, cells at 80-90% confluency were counted and seeded in 96-well, flat bottom microplates and incubated at 37 °C with a 5% CO2 atmosphere. Outer wells were unused to avoid edge effects. After adhering for 24 h, the medium was sterilely aspirated and replaced with 100 µL of fresh medium containing lapcin or a control compound serially diluted at concentrations ranging from 8,000 to 0.00382 ng/mL. After 48 h (37 °C, 5% CO2), the medium was carefully removed and 110 µL of freshly prepared MTT solution (10 µL of 5 mg/mL MTT in PBS (pH 7.4) premixed with 100 µL of complete medium) was added to each well. After 3 h at 37 °C with 5% CO2, 100 µL of solubilization solution (40% DMF, 16% SDS and 2% acetic acid in H2O) was added to each well and precipitated formazan crystals were allowed to dissolve for 4 h. The absorbance of each well was then measured at 570 nm using a Tecan microplate reader.

HT29 cells = test: cells; format: cell-based, human; conditions: Homo sapiens, HT-29; colon cancer; MTT, 48 h, 37 °C; DMEM + 10% FBS; 2,500 cells/well; absorbance 570 nm; n = 3 biologically independent
Protocol: as §1

Colo205 cells = test: cells; format: cell-based, human; conditions: Homo sapiens, COLO 205; colon cancer; MTT, 48 h, 37 °C; RPMI-1640 + 10% FBS; 2,500 cells/well; absorbance 570 nm; n = 3 biologically independent
Protocol: as §1

HCC1806 cells = test: cells; format: cell-based, human; conditions: Homo sapiens, HCC1806; breast cancer; MTT, 48 h, 37 °C; RPMI-1640 + 10% FBS; 2,500 cells/well; absorbance 570 nm; n = 3 biologically independent
Protocol: as §1

MCF 7 cells = test: cells; format: cell-based, human; conditions: Homo sapiens, MCF7; breast cancer; MTT, 48 h, 37 °C; DMEM + 10% FBS; 8,000 cells/well; absorbance 570 nm; n = 3 biologically independent
Protocol: as §1

NCI-H1299 cells = test: cells; format: cell-based, human; conditions: Homo sapiens, NCI-H1299; lung cancer; MTT, 48 h, 37 °C; RPMI-1640 + 10% FBS; 2,500 cells/well; absorbance 570 nm; n = 3 biologically independent
Protocol: as §1

NCI-H226 cells = test: cells; format: cell-based, human; conditions: Homo sapiens, NCI-H226; lung cancer; MTT, 48 h, 37 °C; RPMI-1640 + 10% FBS; 10,000 cells/well; absorbance 570 nm; n = 3 biologically independent
Protocol: as §1

SW480 cells = test: cells; format: cell-based, human; conditions: Homo sapiens, SW480; colon cancer; MTT, 48 h, 37 °C; DMEM + 10% FBS; 10,000 cells/well; absorbance 570 nm; n = 3 biologically independent
Protocol: as §1

Hela (Cervical) cells = test: cells; format: cell-based, human; conditions: Homo sapiens, HeLa; cervical cancer; MTT, 48 h, 37 °C; DMEM + 10% FBS; 2,500 cells/well; absorbance 570 nm; n = 3 biologically independent
Protocol: as §1

U2OS (Bone) cells = test: cells; format: cell-based, human; conditions: Homo sapiens, U2OS; bone cancer; MTT, 48 h, 37 °C; DMEM + 10% FBS + NEAA; 2,500 cells/well; absorbance 570 nm; n = 3 biologically independent
Protocol: as §1

HEK293 cells = test: cells; format: cell-based, human; conditions: Homo sapiens, HEK293; normal cell; MTT, 48 h, 37 °C; DMEM + 10% FBS; 5, 000 cells/well; absorbance 570 nm; n = 3 biologically independent
Protocol: as §1

A549 cells = test: cells; format: cell-based, human; conditions: Homo sapiens, A549; lung cancer; MTT, 48 h, 37 °C; DMEM + 10% FBS + NEAA; 2,500 cells/well; absorbance 570 nm; n = 3 biologically independent
Protocol: as §1

bacterial DNA gyrase = conditions: ref [9],[25]; cited from earlier work

| Compound | IC50 (HCT116 cells) [nM] | IC50 (HT29 cells) [nM] | IC50 (Colo205 cells) [nM] | IC50 (HCC1806 cells) [nM] | IC50 (MCF 7 cells) [nM] | IC50 (NCI-H1299 cells) [nM] | IC50 (NCI-H226 cells) [nM] | IC50 (SW480 cells) [nM] | IC50 (Hela (Cervical) cells) [nM] | IC50 (U2OS (Bone) cells) [nM] | IC50 (HEK293 cells) [nM] | IC50 (A549 cells) [nM] | inhibition of bacterial DNA gyrase (bacterial DNA gyrase) |
| --- | --- | --- | --- | --- | --- | --- | --- | --- | --- | --- | --- | --- | --- |
| CC[C@@]1(O)C(=O)OCc2c1cc1n(c2=O)Cc2cc3ccccc3nc2-1 [Camptothecin] | 129 | 22.3 | 95.7 | 19.6 | > 29200 | 15 | 28.5 | 284 | 62.6 | 172 | 19.2 | 17.6 | – |
| COc1cc([C@@H]2c3cc4c(cc3[C@@H](O[C@@H]3O[C@@H]5CO[C@@H](C)O[C@H]5[C@H](O)[C@H]3O)[C@H]3COC(=O)[C@H]23)OCO4)cc(OC)c1O [Etoposide] | > 54400 | 9610 | – | 3330 | 333 | 716 | 217 | 26900 | 1510 | 1840 | 729 | 79.9 | – |
| albicidin | – | – | – | – | – | – | – | – | – | – | – | – | inhibit the bacterial DNA gyrase |
